Measured values from patent US10689401B2, “C5-C6-oxacyclic fused iminothiazine dioxide compounds bearing an ether linker as BACE inhibitors, compositions, and their use” (Merck Sharp & Dohme Corp., priority 2016, dated 2020).

Tests used:
[1] = target: Recombinant human soluble BACE1 catalytic domain (Homo sapiens (Human), UniProt P56817); experiment: BACE1 HTRF FRET Assay; format: biochemical; settings: for Ki: Ki calculated from IC50 using the Cheng-Prusoff equation, QSY7-APPswe-Eu substrate, pH 5.0, read-out: BACE-1 Ki; for inhibition at 10 µM: read-out: BACE-1 inhibition (printed in BACE-1 Ki column)
Text: Reagents: Na^+-Acetate pH 5.0; 1% Brij-35; Glycerol; Dimethyl Sulfoxide (DMSO); Recombinant human soluble BACE1 catalytic domain (>95% pure); APP Swedish mutant peptide substrate (QSY7-APP^swe-Eu): QSY7-EISEVNLDAEFC-Europium-amide.
A homogeneous time-resolved FRET assay can be used to determine IC50 values for inhibitors of the soluble human BACE1 catalytic domain. This assay monitors the increase of 620 nm fluorescence that resulted from BACE1 cleavage of an APPswedish APP^swe mutant peptide FRET substrate (QSY7-EISEVNLDAEFC-Europium-amide). This substrate contains an N-terminal QSY7 moiety that serves as a quencher of the C-terminal Europium fluorophore (620 nm Em). In the absence of enzyme activity, 620 nm fluorescence is low in the assay and increased linearly over 3 hours in the presence of uninhibited BACE1 enzyme. Inhibition of BACE1 cleavage of the QSY7-APP^swe-Eu substrate by inhibitors is manifested as a suppression of 620 nm fluorescence.
Varying concentrations of inhibitors at 3× the final desired concentration in a volume of 10 ul are preincubated with purified human BACE1 catalytic domain (3 nM in 10 μl) for 30 minutes at 30° C. in reaction buffer containing 20 mM Na-Acetate pH 5.0, 10% glycerol, 0.1% Brij-35 and 7.5% DSMO. Reactions are initiated by addition of 10 μl of 600 nM QSY7-APP^swe-Eu substrate (200 nM final) to give a final reaction volume of 30 μl in a 384 well Nunc HTRF plate. The reactions are incubated at 30° C. for 1.5 hours. The 620 nm fluorescence is then read on a Rubystar HTRF plate reader (BMG Labtechnologies) using a 50 millisecond delay followed by a 400 millisecond acquisition time window. Inhibitor IC50 values are derived from non-linear regression analysis of concentration response curves. Ki values are then calculated from IC50 values using the Cheng-Prusoff equation using a previously determined […] of 8 μM for the QSY7-APP^swe-Eu substrate at BACE1.

[2] = target: purified human autoBACE-2 (Homo sapiens (Human), UniProt Q9Y5Z0); experiment: BACE-2 Assay (BACE-HTRF assay); format: biochemical; settings: Ki calculated from IC50 using the Cheng-Prusoff equation; QSY7-EISEVNLDAEFC-Eu-amide substrate, pH 5.0
Protocol: Inhibitor IC50s at purified human autoBACE-2 are determined in a time-resolved endpoint proteolysis assay that measures hydrolysis of the QSY7-EISEVNLDAEFC-Eu-amide FRET peptide substrate (BACE-HTRF assay). BACE-mediated hydrolysis of this peptide results in an increase in relative fluorescence (RFU) at 620 nm after excitation with 320 nm light. Inhibitor compounds, prepared at 3× the desired final concentration in 1×BACE assay buffer (20 mM sodium acetate pH 5.0, 10% glycerol, 0.1% Brij-35) supplemented with 7.5% DMSO are preincubated with an equal volume of autoBACE-2 enzyme diluted in 1×BACE assay buffer (final enzyme concentration 1 nM) in black 384-well NUNC plates for 30 minutes at 30° C. […] DMSO is present at 5% final concentration in the assay. Following laser excitation of sample wells at 320 nm, the fluorescence signal at 620 nm is collected for 400 ms following a 50 μs delay on a RUBYstar HTRF plate reader (BMG Labtechnologies). Raw RFU data is normalized to maximum (1.0 nM BACE/DMSO) and minimum (no enzyme/DMSO) RFU values. IC50s are determined by nonlinear regression analysis (sigmoidal dose response, variable slope) of percent inhibition data with minimum and maximum values set to 0 and 100 percent respectively. Similar IC50s are obtained when using raw RFU data. The Ki values are calculated from the IC50 using the Cheng-Prusoff equation.

Chain of purified human autoBACE-2 (Q9Y5Z0 63-518): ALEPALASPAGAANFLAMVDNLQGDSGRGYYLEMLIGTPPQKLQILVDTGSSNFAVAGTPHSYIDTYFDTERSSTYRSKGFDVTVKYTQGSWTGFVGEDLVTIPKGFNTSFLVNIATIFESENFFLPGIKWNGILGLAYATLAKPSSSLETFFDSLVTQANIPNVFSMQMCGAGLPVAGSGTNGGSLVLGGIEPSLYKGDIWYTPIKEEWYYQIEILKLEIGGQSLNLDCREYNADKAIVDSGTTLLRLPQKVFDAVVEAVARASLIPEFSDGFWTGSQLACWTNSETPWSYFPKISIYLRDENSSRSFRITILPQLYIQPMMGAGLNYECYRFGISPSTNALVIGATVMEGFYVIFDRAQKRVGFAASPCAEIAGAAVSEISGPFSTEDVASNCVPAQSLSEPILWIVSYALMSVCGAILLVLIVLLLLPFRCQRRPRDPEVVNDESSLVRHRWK
Chain of Recombinant human soluble BACE1 catalytic domain (P56817 75-416): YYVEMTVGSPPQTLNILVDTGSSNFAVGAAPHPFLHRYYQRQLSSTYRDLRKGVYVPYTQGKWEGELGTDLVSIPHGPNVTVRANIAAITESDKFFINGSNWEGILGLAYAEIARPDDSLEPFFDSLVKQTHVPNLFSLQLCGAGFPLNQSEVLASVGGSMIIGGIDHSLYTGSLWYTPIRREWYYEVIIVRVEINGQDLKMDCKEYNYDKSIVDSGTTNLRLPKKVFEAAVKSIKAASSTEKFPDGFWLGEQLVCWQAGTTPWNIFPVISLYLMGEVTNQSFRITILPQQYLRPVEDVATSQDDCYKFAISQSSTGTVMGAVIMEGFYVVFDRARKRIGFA

SMILES	Ki [1] [nM]	Ki [2] [nM]	inhibition at 10 µM [1] [%]
C[C@H]1C[C@@H]2[C@](c3ccccc3F)(CO1)NC(=N)C(C)(C)S2(=O)=O [Example 1, (4aS,7S,8aR)-4a-(2-fluorophenyl)-3-imino-2,2,7-trimethyloctahydropyrano[4,3-b][1,4]thiazine 1,1-dioxide]	363	72.5	
C[C@@H]1C[C@@H]2[C@](c3ccccc3F)(CO1)NC(=N)C(C)(C)S2(=O)=O [Example 2, (4aS,7R,8aR)-4a-(2-fluorophenyl)-3-imino-2,2,7-trimethyloctahydropyrano[4,3-b][1,4]thiazine 1,1-dioxide]		6260	50
C[C@H]1C[C@@H]2[C@](c3cc(Br)ccc3F)(CO1)NC(=N)C(C)(C)S2(=O)=O [Example 3, (4aS,7S,8aR)-4a-(5-bromo-2-fluorophenyl)-3-imino-2,2,7 trimethyloctahydropyrano[4,3-b][1,4]thiazine 1,1-dioxide]	1210	399	
CC(C)COc1ccc(F)c([C@]23CO[C@@H](C)C[C@H]2S(=O)(=O)C(C)(C)C(=N)N3)c1 [Example 4, (4aS,7S,8aR)-4a-(2-fluoro-5-isobutoxyphenyl)-3-imino-2,2,7-trimethyloctahydropyrano[4,3-b][1,4]thiazine 1,1-dioxide]	354	31.6	
C[C@H]1C[C@@H]2[C@](c3cc(Oc4ncccc4F)ccc3F)(CO1)NC(=N)C(C)(C)S2(=O)=O [Example 5, (4aS,7S,8aR)-4a-(2-fluoro-5-((3-fluoropyridin-2-yl)oxy)phenyl)-3-imino-2,2,7-trimethyloctahydropyrano[4,3-b][1,4]thiazine 1,1-dioxide]	17.5	4.9	
C[C@H]1C[C@@H]2[C@](c3cc(Oc4cc(C#N)ccn4)ccc3F)(CO1)NC(=N)C(C)(C)S2(=O)=O [Example 6, 2-(4-fluoro-3-((4aS,7S,8aR)-3-imino-2,2,7-trimethyl-1,1-dioxidooctahydropyrano[4,3-b][1,4]thiazin-4a-yl)phenoxy)isonicotinonitrile]	23.6	19.2	
C[C@H]1C[C@@H]2[C@](c3cc(Oc4ncc(F)cc4F)ccc3F)(CO1)NC(=N)C(C)(C)S2(=O)=O [Example 7, (4aS,7S,8aR)-4a-(5-((3,5-difluoropyridin-2-yl)oxy)-2-fluorophenyl)-3-imino-2,2,7-trimethyloctahydropyrano[4,3-b][1,4]thiazine 1,1-dioxide]	53.6	28.9	
C[C@@H]1C[C@@H]2[C@](c3cc(OCC4CC4)ccc3F)(CO1)NC(=N)C(C)(C)S2(=O)=O [Example 8, (4aS,7R,8aR)-4a-(5-(cyclopropylmethoxy)-2-fluorophenyl)-3-imino-2,2,7-trimethyloctahydropyrano[4,3-b][1,4]thiazine 1,1-dioxide]	4480	1180	
C[C@H]1C[C@@H]2[C@](c3cc(OCC4CC4)ccc3F)(CO1)NC(=N)C(C)(C)S2(=O)=O [Example 9, (4aS,7S,8aR)-4a-(5-(cyclopropylmethoxy)-2-fluorophenyl)-3-imino-2,2,7-trimethyloctahydropyrano[4,3-b][1,4]thiazine 1,1-dioxide]	94.2	11.4	
COc1ccc(F)c([C@]23CO[C@@H](C)C[C@H]2S(=O)(=O)C(C)(C)C(=N)N3)c1 [Example 10, (4aS,7S,8aR)-4a-(2-fluoro-5-methoxyphenyl)-3-imino-2,2,7-trimethyloctahydropyrano[4,3-b][1,4]thiazine 1,1-dioxide]	681	249	
COc1ccc(F)c([C@]23CO[C@H](C)C[C@H]2S(=O)(=O)C(C)(C)C(=N)N3)c1 [Example 11, (4aS,7R,8aR)-4a-(2-fluoro-5-methoxyphenyl)-3-imino-2,2,7-trimethyloctahydropyrano[4,3-b][1,4]thiazine 1,1-dioxide]		8400	27
COc1ccc(F)c([C@]23CO[C@@H](c4ccc(F)cc4)C[C@H]2S(=O)(=O)C(C)(C)C(=N)N3)c1 [Example 12, (4aS,7R,8aR)-4a-(2-fluoro-5-methoxyphenyl)-7-(4-fluorophenyl)-3-imino-2,2-dimethyloctahydropyrano[4,3-b][1,4]thiazine 1,1-dioxide]	184	96.3	
CC1(C)C(=N)N[C@@]2(c3cc(OCC4CC4)ccc3F)CO[C@@H](c3ccc(F)cc3)C[C@H]2S1(=O)=O [Example 13, (4aS,7R,8aR)-4a-(5-(cyclopropylmethoxy)-2-fluorophenyl)-7-(4-fluorophenyl)-3-imino-2,2-dimethyloctahydropyrano[4,3-b][1,4]thiazine 1,1-dioxide]	115	11.7	
CC1(C)C(=N)N[C@@]2(c3cc(Oc4ncccc4F)ccc3F)CO[C@@H](c3ccc(F)cc3)C[C@H]2S1(=O)=O [Example 14, (4aS,7R,8aR)-4a-(2-fluoro-5-((3-fluoropyridin-2-yl)oxy)phenyl)-7-(4-fluorophenyl)-3-imino-2,2-dimethyloctahydropyrano[4,3-b][1,4]thiazine 1,1-dioxide]	3.9	1.9	
CC1(C)C(=N)N[C@@]2(c3cc(Oc4cc(C#N)ccn4)ccc3F)CO[C@@H](c3ccc(F)cc3)C[C@H]2S1(=O)=O [Example 15, 2-(4-fluoro-3-((4aS,7R,8aR)-7-(4-fluorophenyl)-3-imino-2,2-dimethyl-1,1-dioxidooctahydropyrano[4,3-b][1,4]thiazin-4a-yl)phenoxy)isonicotinonitrile]	17.9	19.8	
COc1ccc(F)c([C@]23CO[C@@H](CO)C[C@H]2S(=O)(=O)C(C)(C)C(=N)N3)c1 [Example 16, (4aS,7R,8aR)-4a-(2-fluoro-5-methoxyphenyl)-7-(hydroxymethyl)-3-imino-2,2-dimethyloctahydropyrano[4,3-b][1,4]thiazine 1,1-dioxide]	2860	2020	
CC1(C)C[C@@H]2[C@](c3ccccc3F)(CO1)NC(=N)C(C)(C)S2(=O)=O [Example 17, (4aS,8aR)-4a-(2-fluorophenyl)-2,2,7,7-tetramethyltetrahydro-2H,5H-pyrano[4,3-b][1,4]thiazin-3(4H)-imine 1,1-dioxide]	300	293	
CC1(C)C[C@@H]2[C@](c3cc(Oc4ncccc4F)ccc3F)(CO1)NC(=N)C(C)(C)S2(=O)=O [Example 18, (4aS,8aR)-4a-{2-fluoro-5-[(3-fluoropyridin-2-yl)oxy]phenyl}-2,2,7,7-tetramethyltetrahydro-2H,5H-pyrano[4,3-b][1,4]thiazin-3(4H)-imine 1,1-dioxide]	22.4	42.2	
CC1(C)C[C@@H]2[C@](c3cc(Oc4cc(C#N)ccn4)ccc3F)(CO1)NC(=N)C(C)(C)S2(=O)=O [Example 19]	33.8	65.2	
CC1(C)C[C@@H]2[C@](c3cc(Oc4ncc(F)cc4F)ccc3F)(CO1)NC(=N)C(C)(C)S2(=O)=O [Example 20, (4aS,8aR)-4a-{5-[(3,5-difluoropyridin-2-yl)oxy]-2-fluorophenyl}-2,2,7,7-tetramethyltetrahydro-2H,5H-pyrano[4,3-b][1,4]thiazin-3(4H)-imine 1,1-dioxide]	53.2	102	
CC1(C)C[C@@H]2[C@](c3cc(Oc4cc(F)cnc4F)ccc3F)(CO1)NC(=N)C(C)(C)S2(=O)=O [Example 21, (4aS,8aR)-4a-{5-[(2,5-difluoropyridin-3-yl)oxy]-2-fluorophenyl}-2,2,7,7-tetramethyltetrahydro-2H,5H-pyrano[4,3-b][1,4]thiazin-3(4H)-imine 1,1-dioxide]	9.7	88	
